According to article PMC3982560, “Synthesis of fluorescent analogs of relaxin family peptides and their preliminary in vitro and in vivo characterization” (Frontiers in Chemistry, 2013):

Legend:
[1] = system: central RXFP1 activation (water drinking); assay: Drinking (dipsogenic) response after icv infusion; format: in vivo; conditions: adult male C57B/6J mice; single 4 μg dose icv in 4 μl aCSF; n = 3–4; observed 30 min
Excerpt: (§1) Adult male C57B/6J mice (10-weeks old) were deeply anesthetized by inhalation of 4% isoflurane and anaesthesia was maintained with 2% isoflurane administered at 0.2 l/min through a nasal cone. Mice were secured in a stereotaxic frame and an incision made to expose the skull, which was cleaned with 6% hydrogen peroxide. Two 1 mm-diameter holes were drilled in the skull on either side of the sagittal midline, 3 mm posterior and 3 mm lateral to bregma, to allow small screws (3 mm long) to be secured in order to anchor the guide cannula in place. A third hole of 1 mm in diameter was drilled through the skull to allow implantation of a stainless-steel guide cannula (11 mm long, 24 gauge) just above the lateral ventricle at the coordinates relative to bregma: anterior-posterior −0.46 mm; medial-lateral −0.8 mm; dorsal-ventral −1.8 mm. The guide cannula and screws were fixed in place by application of self-curing acrylic dental cement (Vertex-Dental, the Netherlands).
After 5–10 days recovery post-surgery, mice were gently restrained and an injector was inserted through the guide cannula which protruded 0.5 mm into the lateral ventricle. A single 4 μg dose of each peptide (n = 3–4) was delivered in 4 μ l of artificial CSF (aCSF; 147 mM NaCl, 4 mM KCl, 0.85 mM MgCl2, and 2.3 mM CaCl2), over 1 min via a 10 μ l syringe (0.46 mm diameter) mounted on an infusion pump connected to the injector via polyethylene tubing. Following infusion, the injector was left in place for a further 15 s to prevent backflow of the infused peptide up the guide cannula.
Following peptide infusion, mice were placed back in their clear-walled home cages for 30 min with access to water (and food) and filmed through the side of the cage for subsequent assessment of behavior. After 30 min, mice were killed by isoflurane inhalation overdose, decapitated, and brains were removed and “post-fixed” by immersion in chilled 4% PFA solution. […] Sections were viewed and images collected using a confocal laser scanning microscope, using laser light at λ of 633 nm, while light between λ of 650–750 nm was detected.

RXFP2 = target: T1, RXFP2 (Homo sapiens, UniProt Q8WXD0); assay: cAMP reporter gene assay (pCRE β-galactosidase); conditions: cell-based assay, HEK-293T RXFP2
T1 construct: expressed in transfected cells; host or cells: HEK-293T (co-transfected with pCRE β-galactosidase reporter)
Experimental: The ability of the Cy5.5-labeled insulin/relaxin family peptide analogs to stimulate cAMP production was evaluated using a cAMP reporter gene assay as described (Scott et al., [2006]). HEK-293T cells co-transfected with either RXFP1 or RXFP2 and a pCRE β-galactosidase reporter plasmid were plated in 96-well plates (Chen et al., [1995]). After 24 h, the co-transfected cells were incubated with increasing concentrations of relaxin analogs in parallel to 10 nM of H2 relaxin or INSL3 for RXFP1- or RXFP2- transfected cells, respectively. The amount of cAMP-driven β-galactosidase expression in each well was assessed with a colormetric assay measuring absorbance at 570 nm on a microplate spectrophotometer. Ligand-induced cAMP stimulation was expressed as a percentage of maximal response of H2 relaxin or INSL3 for RXFP1 and RXFP2 cells, respectively. Each data point was measured in triplicate and each experiment conducted independently at least three separate times. Statistical differences in pEC50 values were analyzed using One-Way ANOVA coupled to the Newman Keul's multiple comparison test for multiple group comparisons in GraphPad Prism 4.

brain tissue = assay: Brain distribution of Cy5.5 fluorescence after icv infusion; format: in vivo; conditions: mice, 30 min after icv injection of 4 μg
Excerpt: as §1, with “Netherlands). […]” for “Netherlands).”
Following peptide infusion, mice were placed back in their clear-walled home cages for 30 min with access to water (and food) and filmed through the side of the cage for subsequent assessment of behavior. […] Sections were viewed and images collected using a confocal laser scanning microscope, using laser light at λ of 633 nm, while light between λ of 650–750 nm was detected.

T1 sequence (Q8WXD0 whole entry, species assumed): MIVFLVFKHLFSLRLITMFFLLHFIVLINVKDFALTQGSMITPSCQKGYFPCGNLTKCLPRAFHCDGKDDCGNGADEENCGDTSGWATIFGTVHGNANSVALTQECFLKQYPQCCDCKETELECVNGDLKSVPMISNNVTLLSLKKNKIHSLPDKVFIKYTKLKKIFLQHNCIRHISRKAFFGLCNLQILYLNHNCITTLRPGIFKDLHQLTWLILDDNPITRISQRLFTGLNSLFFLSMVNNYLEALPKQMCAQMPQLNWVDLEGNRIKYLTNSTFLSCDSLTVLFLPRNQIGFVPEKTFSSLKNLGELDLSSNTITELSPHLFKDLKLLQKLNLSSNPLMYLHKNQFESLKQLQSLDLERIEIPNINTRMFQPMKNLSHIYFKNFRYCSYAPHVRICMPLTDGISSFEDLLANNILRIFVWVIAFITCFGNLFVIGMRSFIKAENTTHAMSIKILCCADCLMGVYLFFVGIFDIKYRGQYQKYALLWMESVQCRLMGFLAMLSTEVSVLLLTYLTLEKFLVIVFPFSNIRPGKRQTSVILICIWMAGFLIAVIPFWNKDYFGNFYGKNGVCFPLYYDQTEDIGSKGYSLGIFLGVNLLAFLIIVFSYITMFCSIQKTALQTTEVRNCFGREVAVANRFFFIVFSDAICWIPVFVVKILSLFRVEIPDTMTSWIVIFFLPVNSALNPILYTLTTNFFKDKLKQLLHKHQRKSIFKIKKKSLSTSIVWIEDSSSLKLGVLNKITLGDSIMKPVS

Row | SMILES | Drinking behavior after icv infusion (in words) [1] | Activation of RXFP2 (in words) (RXFP2) | Distance from the ventricle wall beyond which little or no Cy5.5 fluorescence was seen (brain tissue; confocal microscopy) [μm] | Distribution of Cy5.5 fluorescence in brain (in words) (brain tissue; confocal microscopy of 40 μm coronal sections)
1 | CCCC[N+]1=C(C=CC=CC=C2N(CCCCCC(=O)NCCCn3cc(C[C@H](N)C(=O)N4CCC[C@H]4C(=O)N[C@H](C(=O)N4CCC[C@H]4C(=O)N[C@@H](CCC(=O)O)C(=O)N[C@@H](CCSC)C(=O)N[C@@H](CCCNC(=N)N)C(=O)N[C@@H](CCC(=O)O)C(=O)N[C@@H](CCCCN)C(=O)N[C@@H](CC(C)C)C(=O)N[C@H]4CSSC[C@@H]5NC(=O)[C@@H](NC(=O)[C@H](Cc6ccc(O)cc6)NC(=O)[C@H](CCCNC(=N)N)NC(=O)[C@H](C)NC(=O)[C@@H]6CCCN6C(=O)[C@H](CC(N)=O)NC(=O)[C@@H](NC(=O)[C@H](C)NC(=O)[C@H](C)NC(=O)[C@H](C)N)[C@@H](C)O)CSSC[C@H](NC(=O)CNC(=O)[C@H](CO)NC(=O)[C@H](CC(C)C)NC5=O)C(=O)N[C@@H]([C@@H](C)O)C(=O)N[C@@H](CCC(N)=O)C(=O)N[C@@H](CCC(N)=O)C(=O)N[C@@H](CC(=O)O)C(=O)N[C@@H](CC(C)C)C(=O)N[C@@H](CC(C)C)C(=O)N[C@@H]([C@@H](C)O)C(=O)N[C@@H](CC(C)C)C(=O)N[C@H](C(=O)N5CCC[C@H]5C(=O)N[C@@H](Cc5ccc(O)cc5)C(=O)O)CSSC[C@@H](C(=O)NCC(=O)NCC(=O)N5CCC[C@H]5C(=O)N[C@@H](CCCNC(=N)N)C(=O)N[C@@H](Cc5c[nH]c6ccccc56)C(=O)N[C@@H](CO)C(=O)N[C@H](C(=O)N[C@@H](CCC(=O)O)C(=O)N[C@@H](C)C(=O)O)[C@@H](C)O)NC(=O)[C@H](C(C)C)NC(=O)[C@H](CCCNC(=N)N)NC(=O)[C@H](C(C)C)NC(=O)[C@H](CC(C)C)NC(=O)[C@H](C)NC(=O)[C@H](CCCNC(=N)N)NC(=O)[C@H](C(C)C)NC(=O)[C@H](Cc5ccccc5)NC(=O)[C@H](Cc5c[nH]cn5)NC(=O)[C@H](Cc5c[nH]cn5)NC(=O)CNC4=O)[C@@H](C)O)nn3)c3ccc4ccccc4c3C2(C)C)C(C)(C)c2c1ccc1ccccc21 [Cy5.5-INSL3] | did not initiate a drinking response |  |  | 
2 | CCCC[N+]1=C(C=CC=CC=C2N(CCCCCC(=O)NCCCn3cc(C[C@H](N)C(=O)N[C@@H](CC(=O)O)C(=O)N[C@@H](CO)C(=O)N[C@@H](Cc4c[nH]c5ccccc45)C(=O)N[C@@H](CCSC)C(=O)N[C@@H](CCC(=O)O)C(=O)N[C@@H](CCC(=O)O)C(=O)N[C@H](C(=O)N[C@H](C(=O)N[C@@H](CCCCN)C(=O)N[C@@H](CC(C)C)C(=O)N[C@H]4CSSC[C@@H]5NC(=O)[C@@H](NC(=O)[C@H](CCCCN)NC(=O)[C@H](CC(N)=O)NC(=O)[C@H](C)NC(=O)[C@H](CC(C)C)NC(=O)[C@H](C)NC(=O)[C@@H](N)CO)CSSC[C@H](NC(=O)CNC(=O)[C@H](C(C)C)NC(=O)[C@H](Cc6c[nH]cn6)NC5=O)C(=O)N[C@@H]([C@@H](C)O)C(=O)N[C@@H](CCCCN)C(=O)N[C@@H](CCCNC(=N)N)C(=O)N[C@@H](CO)C(=O)N[C@@H](CC(C)C)C(=O)N[C@@H](C)C(=O)N[C@@H](CCCNC(=N)N)C(=O)N[C@@H](C)C(=O)N[C@H](C(=O)O)CSSC[C@@H](C(=O)NCC(=O)N[C@@H](CCSC)C(=O)N[C@@H](CO)C(=O)N[C@H](C(=O)N[C@@H](Cc5c[nH]c6ccccc56)C(=O)N[C@@H](CO)C(=O)O)[C@@H](C)O)NC(=O)[C@H]([C@@H](C)CC)NC(=O)[C@H](C)NC(=O)[C@H]([C@@H](C)CC)NC(=O)[C@H](CCC(N)=O)NC(=O)[C@H](C)NC(=O)[C@H](CCCNC(=N)N)NC(=O)[C@H](C(C)C)NC(=O)[C@H](CC(C)C)NC(=O)[C@H](CCC(=O)O)NC(=O)[C@H](CCCNC(=N)N)NC(=O)CNC4=O)[C@@H](C)CC)C(C)C)nn3)c3ccc4ccccc4c3C2(C)C)C(C)(C)c2c1ccc1ccccc21 [Cy5.5-H2:A(4-24)(F23A)] | stimulated a similar increase in drinking behavior |  |  | 
3 | CCCC[N+]1=C(C=CC=CC=C2N(CCCCCC(=O)NCCCn3cc(C[C@H](N)C(=O)N[C@@H](CC(=O)O)C(=O)N[C@@H](CO)C(=O)N[C@@H](Cc4c[nH]c5ccccc45)C(=O)N[C@@H](CCSC)C(=O)N[C@@H](CCC(=O)O)C(=O)N[C@@H](CCC(=O)O)C(=O)N[C@H](C(=O)N[C@H](C(=O)N[C@@H](CCCCN)C(=O)N[C@@H](CC(C)C)C(=O)N[C@H]4CSSC[C@@H]5NC(=O)[C@@H](NC(=O)[C@H](CCCCN)NC(=O)[C@H](CC(N)=O)NC(=O)[C@H](C)NC(=O)[C@H](CC(C)C)NC(=O)[C@H](C)NC(=O)[C@H](CO)NC(=O)[C@H](Cc6ccc(O)cc6)NC(=O)[C@H](CC(C)C)NC(=O)[C@@H]6CCC(=O)N6)CSSC[C@H](NC(=O)CNC(=O)[C@H](C(C)C)NC(=O)[C@H](Cc6c[nH]cn6)NC5=O)C(=O)N[C@@H]([C@@H](C)O)C(=O)N[C@@H](CCCCN)C(=O)N[C@@H](CCCNC(=N)N)C(=O)N[C@@H](CO)C(=O)N[C@@H](CC(C)C)C(=O)N[C@@H](C)C(=O)N[C@@H](CCCNC(=N)N)C(=O)N[C@@H](Cc5ccccc5)C(=O)N[C@H](C(=O)O)CSSC[C@@H](C(=O)NCC(=O)N[C@@H](CCSC)C(=O)N[C@@H](CO)C(=O)N[C@H](C(=O)N[C@@H](Cc5c[nH]c6ccccc56)C(=O)N[C@@H](CO)C(=O)O)[C@@H](C)O)NC(=O)[C@H]([C@@H](C)CC)NC(=O)[C@H](C)NC(=O)[C@H]([C@@H](C)CC)NC(=O)[C@H](CCC(N)=O)NC(=O)[C@H](C)NC(=O)[C@H](CCCNC(=N)N)NC(=O)[C@H](C(C)C)NC(=O)[C@H](CC(C)C)NC(=O)[C@H](CCC(=O)O)NC(=O)[C@H](CCCNC(=N)N)NC(=O)CNC4=O)[C@@H](C)CC)C(C)C)nn3)c3ccc4ccccc4c3C2(C)C)C(C)(C)c2c1ccc1ccccc21 [Cy5.5-H2 relaxin] | stimulated a similar increase in drinking behavior | activated | > 300 | high levels of Cy5.5 were present within the ventricle wall and brain tissue proximal to the major cerebral ventricles
